Measured values: patent US9617240B2 (TEIJIN PHARMA LIMITED, priority 2013, dated 2017)

Target: T1, oxidase type xanthine oxidase (derived from buttermilk) (Bos taurus, UniProt P80457)
T1 construct: oxidase type xanthine oxidase (derived from buttermilk, supplied by Calbiochem Novabiochem Corp.); purchased Calbiochem Novabiochem Corp; host or cells: buttermilk (natural source)
Experiment: Xanthine oxidase inhibitory activity (absorbance change at 290 nm)
Format: biochemical
Conditions: xanthine substrate, 100 mM phosphate buffer, absorbance at 290 nm for 5 minutes; read-out: Inhibitory Activity (50% inhibitory concentration with respect to oxidase type xanthine oxidase)
Description: The xanthine oxidase inhibitory activity was measured for the compounds synthesized according to the above Examples.
After a test compound was dissolved in DMSO (manufactured by Sigma Co.) so that the concentration is 20 mM, the test compound was prepared and used at a desired concentration at the time of use.
The evaluation of the xanthine oxidase inhibitory activity of the compounds of the present invention was conducted by partially modifying the method described in the literature (Method Enzymatic Analysis, 1, 521-522, 1974). The present evaluation is based on the oxidase type xanthine oxidase inhibitory activity evaluation. That is, a xanthine (manufactured by Sigma Co.) solution prepared at 10 mM in advance using a 20 mM sodium hydroxide solution was adjusted to 30 μM using a 100 mM phosphate buffer solution, and 75 μL/well of each solution was added into a 96-well plate. Aliquots (1.5 μL/well) of each test sample, which was diluted with DMSO so that the concentration is 100 times the final concentration, were added into a 96-well plate, and after mixing, the absorbance at 290 nm was measured by a microplate reader SPECTRA MAX Plus 384 (manufactured by Molecular Devices, LLC). Subsequently, oxidase type xanthine oxidase (derived from buttermilk, supplied by Calbiochem Novabiochem Corp.) was prepared at 30.6 mU/mL using a 100 mM phosphate buffer solution and 73.5 μL/well of each solution was added. Immediately after mixing, the change in absorbance at 290 nm was measured for 5 minutes. The enzyme activity when DMSO was used instead of a test compound solution was defined as 100%, the inhibitory rate of the test compounds was calculated and the 50% inhibitory concentration with respect to oxidase type xanthine oxidase was calculated by fitting to the dose-response curve.
Note that the symbols (+, ++, +++) in the table represent inhibitory activity values as shown below.

T1 sequence (P80457 whole entry): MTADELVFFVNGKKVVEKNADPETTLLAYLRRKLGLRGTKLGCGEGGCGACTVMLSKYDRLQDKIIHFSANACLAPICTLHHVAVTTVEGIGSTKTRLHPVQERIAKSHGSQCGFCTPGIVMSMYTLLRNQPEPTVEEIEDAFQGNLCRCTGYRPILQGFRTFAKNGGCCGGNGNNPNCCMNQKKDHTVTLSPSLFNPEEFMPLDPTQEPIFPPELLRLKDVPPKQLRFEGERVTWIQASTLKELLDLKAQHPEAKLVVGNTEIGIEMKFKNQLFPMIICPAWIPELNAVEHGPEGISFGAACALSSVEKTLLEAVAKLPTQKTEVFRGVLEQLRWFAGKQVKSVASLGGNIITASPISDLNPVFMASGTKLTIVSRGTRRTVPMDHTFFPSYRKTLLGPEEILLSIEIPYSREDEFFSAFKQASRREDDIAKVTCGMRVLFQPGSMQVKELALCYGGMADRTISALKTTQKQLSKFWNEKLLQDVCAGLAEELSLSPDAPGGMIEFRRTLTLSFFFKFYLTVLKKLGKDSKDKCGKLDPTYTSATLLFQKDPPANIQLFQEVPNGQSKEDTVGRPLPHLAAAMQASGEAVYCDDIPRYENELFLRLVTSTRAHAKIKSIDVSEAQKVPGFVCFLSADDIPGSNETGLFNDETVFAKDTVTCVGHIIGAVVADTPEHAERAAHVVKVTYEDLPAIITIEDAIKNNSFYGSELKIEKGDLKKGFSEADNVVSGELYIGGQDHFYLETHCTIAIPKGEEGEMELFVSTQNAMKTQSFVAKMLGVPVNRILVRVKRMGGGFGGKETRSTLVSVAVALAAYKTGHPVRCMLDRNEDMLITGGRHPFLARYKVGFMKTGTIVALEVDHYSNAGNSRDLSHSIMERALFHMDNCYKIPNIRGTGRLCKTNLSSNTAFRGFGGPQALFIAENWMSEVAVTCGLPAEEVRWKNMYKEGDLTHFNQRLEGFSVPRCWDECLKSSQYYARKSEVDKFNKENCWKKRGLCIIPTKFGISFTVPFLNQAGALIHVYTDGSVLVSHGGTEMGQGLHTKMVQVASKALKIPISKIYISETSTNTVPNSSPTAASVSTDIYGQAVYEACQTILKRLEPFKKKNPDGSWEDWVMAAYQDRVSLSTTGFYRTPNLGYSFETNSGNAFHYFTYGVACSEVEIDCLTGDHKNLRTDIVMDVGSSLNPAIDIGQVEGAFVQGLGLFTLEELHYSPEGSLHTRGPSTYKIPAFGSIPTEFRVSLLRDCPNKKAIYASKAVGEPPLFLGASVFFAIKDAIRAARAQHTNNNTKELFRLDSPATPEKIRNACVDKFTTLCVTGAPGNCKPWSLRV

IC50 [nM]	SMILES
≥ 10	COc1cccc(F)c1-c1ccc(-n2cc(C(=O)O)cn2)nc1C#N [Compound 96, 1-[6-cyano-5-(2-fluoro-6-methoxyphenyl)pyridin-2-yl]-1H-pyrazole-4-carboxylic acid]
5 to 10	N#Cc1cc(-n2cc(C(=O)O)cn2)ncc1-c1cccc(OC(F)F)c1 [Compound 46, 1-{4-cyano-5-[3-(difluoromethoxy)phenyl]pyridin-2-yl}-1H-pyrazole-4-carboxylic acid]
≥ 10	Cc1ccc(F)c(-c2ccc(-n3cc(C(=O)O)cn3)nc2C#N)c1 [Compound 88, 1-[6-cyano-5-(2-fluoro-5-methylphenyl)pyridin-2-yl]-1H-pyrazole-4-carboxylic acid]
1 to 5	N#Cc1cc(-n2cc(C(=O)O)cn2)ncc1-c1ccc(C(=O)c2ccccc2)cc1 [Compound 73, 1-[5-(4-benzoylphenyl)-4-cyanopyridin-2-yl]-1H-pyrazole-4-carboxylic acid]
≥ 10	COc1ccncc1-c1cnc(-n2cc(C(=O)O)cn2)cc1C#N [Compound 58, 1-[4-cyano-5-(4-methoxypyridin-3-yl)pyridin-2-yl]-1H-pyrazole-4-carboxylic acid]
1 to 5	N#Cc1cc(-n2cc(C(=O)O)cn2)ncc1-c1ccc(N)cc1 [Compound 68, 1-[5-(4-aminophenyl)-4-cyanopyridine-2-yl]-1H-pyrazole-4-carboxylic acid]
5 to 10	N#Cc1nc(-n2cc(C(=O)O)cn2)ccc1-c1ccccc1F [Compound 86, 1-[6-cyano-5-(2-fluorophenyl)pyridin-2-yl]-1H-pyrazole-4-carboxylic acid]
1 to 5	N#Cc1cc(-n2cc(C(=O)O)cn2)ncc1-c1ccccc1Cl [Compound 6, 1-[4-cyano-5-(2-chlorophenyl)pyridin-2-yl]-1H-pyrazole-4-carboxylic acid]
1 to 5	COc1ccc(F)c(-c2cnc(-n3cc(C(=O)O)c(N)n3)cc2C#N)c1 [Compound 107, 3-amino-1-[4-cyano-5-(2-fluoro-5-methoxyphenyl)pyridine-2-yl]-1H-pyrazole-4-carboxylic acid]
≥ 10	Cc1ccc(F)c(-c2ncc(-n3cc(C(=O)O)cn3)cc2C#N)c1 [Compound 79, 1-[5-cyano-6-(2-fluoro-5-methylphenyl)pyridin-3-yl]-1H-pyrazole-4-carboxylic acid]
1 to 5	Cc1ccc(F)c(-c2cnc(-n3cc(C(=O)O)cn3)cc2C#N)c1 [Compound 34, 1-[4-cyano-5-(2-fluoro-5-methylphenyl)pyridin-2-yl]-1H-pyrazole-4-carboxylic acid]
5 to 10	COc1cccc(F)c1-c1cnc(-n2cc(C(=O)O)cn2)cc1C#N [Compound 18, 1-[4-cyano-5-(2-fluoro-6-methoxyphenyl)pyridin-2-yl]-1H-pyrazole-4-carboxylic acid]
≥ 10	N#Cc1cc(-n2cc(C(=O)O)cn2)ncc1-c1cncc(F)c1 [Compound 60, 1-[4-cyano-5-(5-fluoropyridin-3-yl)pyridin-2-yl]-1H-pyrazole-4-carboxylic acid]
5 to 10	N#Cc1cc(-n2cc(C(=O)O)cn2)ncc1-c1ccc(F)c(Cl)c1 [Compound 40, 1-[4-cyano-5-(3-chloro-4-fluorophenyl)pyridin-2-yl]-1H-pyrazole-4-carboxylic acid]
1 to 5	N#Cc1cc(-n2cc(C(=O)O)cn2)ncc1-c1ccsc1 [Compound 21, 1-[4-cyano-5-(thiophen-3-yl)pyridin-2-yl]-1H-pyrazole-4-carboxylic acid]
1 to 5	CS(=O)(=O)Nc1ccc(-c2cnc(-n3cc(C(=O)O)cn3)cc2C#N)cc1 [Compound 69, 1-[4-cyano-5-(4-methanesulfonamidophenyl)pyridine-2-yl]-1H-pyrazole-4-carboxylic acid]
1 to 5	N#Cc1cc(-n2cc(C(=O)O)c(N)n2)ncc1-c1ccccc1F [Compound 98, 3-amino-1-[4-cyano-5-(2-fluorophenyl)pyridin-2-yl]-1H-pyrazole-4-carboxylic acid]
5 to 10	COc1ccc(F)c(-c2ncc(-n3cc(C(=O)O)cn3)cc2C#N)c1 [Compound 84, 1-[5-cyano-6-(2-fluoro-5-methoxyphenyl)pyridin-3-yl]-1H-pyrazole-4-carboxylic acid]
1 to 5	N#Cc1cc(-n2cc(C(=O)O)cn2)ncc1-c1ccc(OC(F)(F)F)cc1 [Compound 44, 1-{4-cyano-5-[4-(trifluoromethoxy)phenyl]pyridin-2-yl}-1H-pyrazole-4-carboxylic acid]

IC50 [nM]	SMILES
1 to 5	COCc1ccc(-c2cnc(-n3cc(C(=O)O)cn3)cc2C#N)cc1 [Compound 55, 1-{4-cyano-5-[4-(methoxymethyl)phenyl]pyridin-2-yl}-1H-pyrazole-4-carboxylic acid]
1 to 5	N#Cc1cc(-n2cc(C(=O)O)cn2)ncc1-c1ccc2ccccc2c1 [Compound 57, 1-[4-cyano-5-(naphthalen-2-yl)pyridin-2-yl]-1H-pyrazole-4-carboxylic acid]
≥ 10	CCOc1cccc(-c2ccc(-n3cc(C(=O)O)cn3)nc2C#N)c1 [Compound 93, 1-[6-cyano-5-(3-ethoxyphenyl)pyridin-2-yl]-1H-pyrazole-4-carboxylic acid]
1 to 5	N#Cc1cc(-n2cc(C(=O)O)c(N)n2)ncc1-c1ccc(Cl)cc1 [Compound 100, 3-amino-1-[4-cyano-5-(4-chlorophenyl)pyridin-2-yl]-1H-pyrazole-4-carboxylic acid]
1 to 5	Cc1cc(-c2cnc(-n3cc(C(=O)O)cn3)cc2C#N)ccc1Cl [Compound 51, 1-[4-cyano-5-(4-chloro-3-methylphenyl)pyridin-2-yl]-1H-pyrazole-4-carboxylic acid]
5 to 10	CN(C)c1cccc(-c2cnc(-n3cc(C(=O)O)cn3)cc2C#N)c1 [Compound 67, 1-{4-cyano-5-[3-(dimethylamino)phenyl]pyridine-2-yl}-1H-pyrazole-4-carboxylic acid]
1 to 5	N#Cc1cc(-n2cc(C(=O)O)c(N)n2)ncc1-c1ccccc1 [Compound 97, 3-amino-1-(4-cyano-5-phenylpyridin-2-yl)-1H-pyrazole-4-carboxylic acid]
1 to 5	CCOc1cccc(-c2cnc(-n3cc(C(=O)O)cn3)cc2C#N)c1 [Compound 30, 1-[4-cyano-5-(3-ethoxyphenyl)pyridin-2-yl]-1H-pyrazole-4-carboxylic acid]
1 to 5	CSc1ccc(-c2cnc(-n3cc(C(=O)O)cn3)cc2C#N)cc1 [Compound 63, 1-{4-cyano-5-[4-(methylsulfanyl)phenyl]pyridin-2-yl}-1H-pyrazole-4-carboxylic acid]
5 to 10	CCOc1cccc(F)c1-c1cnc(-n2cc(C(=O)O)cn2)cc1C#N [Compound 17, 1-[4-cyano-5-(2-ethoxy-6-fluorophenyl)pyridin-2-yl]-1H-pyrazole-4-carboxylic acid]
≥ 10	N#Cc1cc(-n2cc(C(=O)O)cn2)ncc1-c1ccncc1 [Compound 62, 1-[4-cyano-5-(pyridin-4-yl)pyridin-2-yl]-1H-pyrazole-4-carboxylic acid]
5 to 10	N#Cc1cc(-n2cc(C(=O)O)cn2)ncc1-c1cccc(C(F)(F)F)c1 [Compound 45, 1-{4-cyano-5-[3-(trifluoromethyl)phenyl]pyridin-2-yl}-1H-pyrazole-4-carboxylic acid]
1 to 5	Cc1cccc(-c2cnc(-n3cc(C(=O)O)cn3)cc2C#N)c1F [Compound 36, 1-[4-cyano-5-(2-fluoro-3-methylphenyl)pyridin-2-yl]-1H-pyrazole-4-carboxylic acid]
1 to 5	N#Cc1cc(-n2cc(C(=O)O)c(N)n2)ncc1-c1ccc(F)cc1F [Compound 105, 3-amino-1-[4-cyano-5-(2,4-difluorophenyl)pyridin-2-yl]-1H-pyrazole-4-carboxylic acid]
1 to 5	Cc1ccc(-c2cnc(-n3cc(C(=O)O)c(N)n3)cc2C#N)c(F)c1 [Compound 103, 3-amino-1-[4-cyano-5-(2-fluoro-4-methylphenyl)pyridin-2-yl]-1H-pyrazole-4-carboxylic acid]
≥ 10	N#Cc1cc(-n2cc(C(=O)O)cn2)ncc1-c1ccccc1C(F)(F)F [Compound 8, 1-{4-cyano-5-[2-(trifluoromethyl)phenyl]pyridin-2-yl}-1H-pyrazole-4-carboxylic acid]
≥ 10	N#Cc1nc(-n2cc(C(=O)O)cn2)ccc1-c1ccc(F)cc1F [Compound 90, 1-[6-cyano-5-(2,4-difluorophenyl)pyridin-2-yl]-1H-pyrazole-4-carboxylic acid]
1 to 5	CN(C)c1ccc(-c2cnc(-n3cc(C(=O)O)cn3)cc2C#N)cn1 [Compound 59, 1-{4-cyano-5-[6-(dimethylamino)pyridin-3-yl]pyridin-2-yl}-1H-pyrazole-4-carboxylic acid]
≥ 10	CC(C)c1nn(-c2cc(C#N)c(-c3ccccc3)cn2)cc1C(=O)O [Compound 27, 1-(4-cyano-5-phenylpyridin-2-yl)-3-(propan-2-yl)-1H-pyrazole-4-carboxylic acid]
